# Tests used:
# Type in all cases: cell-based, human
# [1] = tested on: patient-derived organoids (lung cancer); test: Patient tumor tissue-derived organoid assay (area, caspase activity)
# Description: Next, drug efficacy in patient tumor tissue-derived organoids was determined. Approximately 5000 cells/sample from 2 surgical samples were seeded in an ultra-low attachment plate and incubated at 37° C. […] In one of the patient-derived organoids, cisplatin treatment alone decreased spheroid area and increased apoptosis as measured by green intensity (FIG. 11D). […] Indeed, by 72 hours carfilzomib at a concentration of 2.5 μM induced 5-fold increase in caspase activity compared to cisplatin alone but there was not much change in the spheroid area (FIGS. 11E-11F). Thus, no additive effect was apparent in this patient sample. […] The efficacy of ITGB4 antibody in disrupting organoid growth and inducing apoptosis was also tested.
# [2] = tested on: H1993 cells; test: IncuCyte cell proliferation and caspase-3/7 apoptosis assay
# Description: (§1) Cell proliferation and apoptosis assay. Cell proliferation assays were performed using cell lines stably transfected with NucLight Red Lentivirus (Essen Bioscience) to accurately visualize and count the nucleus of a single cell. Cells were seeded on a 96-well plate and allowed to adhere for 24 hours. Test compounds were added at indicated concentrations. Caspase-3/7 Green Apoptosis Reagent (Essen Bioscience) was also added as a green fluorescent indicator of caspase-3/7-mediated apoptotic activity. To monitor cell proliferation and apoptosis over time, the plate was placed in the IncuCyte S3 Live-Cell Analysis System (Essen BioScience) and images were acquired every 2 hours. Data analysis was generated by the IncuCyte software using a red fluorescence mask to accurately count each cell nucleus and a green fluorescence mask to measure apoptosis over time.
# (§2) To determine whether the inhibition in cell proliferation associated with ITGB4 knockdown was due to enhanced apoptosis or reduced cell division (cytostatic), the Essen Bioscience Caspase-3/7 Green apoptosis assay in live cells was conducted. The NucView™[…], a DNA intercalating dye was used to enable quantification of apoptosis over time. The dye is impermeable and non-toxic to cells but once the cell membrane is permeabilized by caspase-3/7, the dye enters the cell and gets activated due to change in pH leading to the generation of green fluorescence that is then detected in real time and quantified using the IncuCyte System (FIG. 4B).
# To address this, H1993 and H2009 cells were treated with cisplatin for 3 days and the changes were analyzed by immunoblotting. […] Next, H1993 and H2009 cells were transiently transfected with ITGB4 siRNA and 24 hours post-transfection they were treated with 10 μM cisplatin and cell proliferation and caspase activity were determined. […] However, in response to cisplatin in ITGB4 knockdown cells, the fold change dipped to <1, alluding to a cytotoxic effect (FIG. 4C). […] However, cell death was not due to caspase activation but appeared to be due to cell bursting which is seen in anoikis (FIGS. 3K and 3L). […]
# [3] = tested on: H2009 cells; test: as above; details: 10 μM cisplatin alone
# Description: as §1, §2
# To address this, H1993 and H2009 cells were treated with cisplatin for 3 days and the changes were analyzed by immunoblotting. […] Next, H1993 and H2009 cells were transiently transfected with ITGB4 siRNA and 24 hours post-transfection they were treated with 10 μM cisplatin and cell proliferation and caspase activity were determined. […] However, in response to cisplatin in ITGB4 knockdown cells, the fold change dipped to <1, alluding to a cytotoxic effect (FIG. 4C). […] However, cell death was not due to caspase activation but appeared to be due to cell bursting which is seen in anoikis (FIGS. 3K and 3L).
# [4] = tested on: ITGB4, PXN, FAK, MET, γH2AX, cleaved PARP in H1993 cells; test: Immunoblot; details: cisplatin 10 μM, 3 days
# Description: (§3) West blotting: Cell lysates were prepared with 1×RIPA buffer (MilliporeSigma) and denatured in 1× reducing sample buffer at 95° C. for 5 minutes. Protein samples (15 μg) were run on 4-15% TGX gels (Bio-Rad, Hercules, Calif., USA) and transferred onto nitrocellulose membranes (Bio-Rad). Blots were blocked with 5% non-fat milk in TBS-T for 1 hour at room temperature and probed with primary antibody diluted in 2.5% BSA in TBS-T overnight at 4° C. After three washes with TBS-T, blots were incubated with HRP-conjugated secondary antibodies for 2 hours at room temperature. After three more washes, bands of interest were visualized via chemiluminescence using Western Bright ECL HRP substrate (Advansta, Menlo Park, Calif., USA) and imaged with the ChemiDoc MP imager (Bio-Rad).
# (§4) Then a sublethal dose was used to determine the effect of these compounds on ITGB4 and PXN expression and caspase activity (FIG. 9I). […] These eleven compounds were further screened in the cisplatin-resistant cell line H2009. […] Further, carfilzomib was tested in another cisplatin-resistant cell line H1993.
# [5] = tested on: ITGB4, PXN, FAK, p27, phospho-Rb, γH2AX, cleaved PARP in H2009 cells; test: Immunoblot; details: cisplatin 10 μM, 3 days
# Description: as §3, §4
# [6] = tested on: ITGB4, PXN, USP1, VDAC1, CD133 in patient-derived organoids; test: Immunoblot of treated patient-derived organoids; details: 48 hours, printed 2.5 mM and 5 mM
# [7] = tested on: ITGB4 expression in H2009 cells; test: FACS analysis with ITGB4 antibody after cisplatin; details: cisplatin for 4 days, FACS on day 5
# Description: Fluorescence-activated cell sorting (FACS) and analysis: Cells were trypsinized and resuspended (5 million) in PBS with 2% FBS. Cells were stained with ITGB4 antibody conjugated to Alexa Fluor® 488 (5 μl/1 million cells) (R&D Systems, Minneapolis, Minn., USA) and Propidium Iodide Ready Flow™ Reagent (1 drop/1 million cells) (Invitrogen) for 30 minutes at 4° C. The Analytical Cytometry Core Facility at City of Hope carried out and assisted all FACS sorting and analysis experiments. Gates were set to sort cell populations having low 10% and high 10% expression of ITGB4 using the FACSAria™ Fusion (BD Biosciences, San Jose, Calif., USA). Sorted cells were immediately cultured in 12-well plates and treated with cisplatin (1 μM) for 48 hours. Then, equal number of untreated and treated cells were collected and stained with same reagents as above. FACS analysis was performed to determine shifts in cell population using the Attune NxT Flow Cytometer (Invitrogen).
# To test the predictions made by the model, H2009 cells were treated with cisplatin for 4 days. On day 5, they were subjected to FACS analysis using an ITGB4 antibody. […] In presence of stress, the cells either increased the expression of ITGB4 or the cells having high ITGB4 get selected (FIG. 13B). […] The cells were then counted, and an equal number of cells were stained with ITGB4 antibody and PI and analyzed by FACS sorting.
structure (smiles),measurement,setting,value
"N.N.[Cl][Pt][Cl] [Cisplatin, Cis-diamminedichloroplatinum(II)]",spheroid area,[1]; patient LCSC2,decreased the spheroid area
same,organoid size,"[1]; patient LCSC4, cisplatin 5 μM alone, carfilzomib 2.5 μM alone",decreased the size of the organoid
same,caspase activity,"[1]; second patient (LCSC2) organoids, drug alone",did not induce any caspase activity
same,caspase activity,[2]; 10 μM cisplatin alone,did not induce caspase activity
same,fold change in cell count,"[2]; ITGB4 knockdown or 10 μM cisplatin alone, cytostatic",~1 fold
same,apoptosis,[3],induced apoptosis in H2009 cell by 72 hours
same,protein expression by immunoblot,[4],reduction in the expression of phosphorylated as well as total FAK and PXN
same,protein expression by immunoblot,[5],reduction in the expression of phosphorylated as well as total FAK and PXN
same,protein expression by immunoblot,[6],minimal effect
same,decrease in ITGB4 low-expressing cells compared to untreated,[7],15%
